Assay results taken from PMC10606064, “2-Aminothiazole-Flavonoid Hybrid Derivatives Binding to Tau Protein and Responsible for Antitumor Activity in Glioblastoma” (International Journal of Molecular Sciences, 2023).

Experiments:
[1] = test system: U87 shCTRL cells; assay: Microtubule network analysis (alpha-tubulin immunofluorescence), U87 shCTRL; type: cell-based, human
Experimental: (§1) Cells were then fixed in 4% formaldehyde (in PBS pH 7.4) for 20 min at RT, permeabilized with PBS-Triton X-100 0.5% for 10 min at RT. Immunostaining was carried out overnight at 4 °C with a primary anti-citrate synthase antibody (dilution 1:400 in PBS-BSA 3%; SC390693; SantaCruz Biotechnologies, Heidelberg, Germany). The following day, the cells were washed then incubated with anti-mouse secondary antibody (dilution 1:800 in PBS-BSA 3%; A-11029; Invitrogen) and TRITC-phalloidin (dilution 1:2500 in PBS-BSA 3%; P1951; Sigma-Aldrich, Saint-Quentin-Fallavier, France) for 1 h at RT in the dark. For the microtubule network, the same protocol for mitochondria labeling was carried out by replacing with primary anti-α-tubulin antibody (dilution 1:400 in PBS-BSA 1% from a 1 mg/mL solution; monoclonal antibody, clone DM1A, Sigma-Aldrich, Saint-Quentin-Fallavier, France). Next, cells were washed in PBS and cover glasses were mounted with a drop of ProLong® anti-fade solution (Invitrogen). Mitochondria and cytoskeletons were imaged using a confocal laser scanning microscope (CLSM) Leica SP5 with a Leica inverted microscope, equipped with a Plan-Apochromat 63×oil immersion objective (NA = 1.4). Each image was recorded with the CLSM’s spectral mode selecting specific domains of the emission spectrum. The Alexafluor488 and FITC fluorophores were excited at 488 nm with an argon laser, and fluorescence emission was collected between 496 nm and 535 nm. The TRITC fluorophore was excited at 543 nm with a helium–neon laser, and fluorescence was collected between 560 and 620 nm. The public-domain Fiji v1.54f software was used for image analysis.
(§2) The analyses of mitochondria and microtubule networks were performed using, respectively, the ‘Mitochondria analyzer’ plugin for Fiji v1.54f software and the method described in our earlier work. Briefly, a series of images were transferred to the software and corrected for background fluorescence intensity contribution. Next, the surface of 50 single cells was measured by considering the cell shape as the boundary of labelling of actin or α-tubulin cytoskeletons (respectively for measurement on mitochondria or microtubules). Then, the mitochondria elongation and mean branch junction per mitochondria parameters, and the surface of the microtubule network, were measured by performing systematically the Otsu method to reduce all gray-level images to binary images. Note that the Otsu plugin in ImageJ is an algorithm which searches for the threshold minimizing the intra-class variance of pixel intensities, defined as a weighted sum of variances of the two classes; the local set is a circular region of interest, and the central pixel is tested against the Otsu threshold found for that region. Moreover, the ratios of microtubules on cell surfaces were calculated as percentages.

[2] = test system: U87 shCTRL cells; assay: Mitochondria network analysis (citrate synthase immunofluorescence), U87 shCTRL; type: cell-based, human; details: 5 µM, 24 h (Figure 4 legend: 48 h)
Experimental: as §1, with “For indirect immunofluorescence of mitochondria, 10^4 cells were plated on cover glass and incubated for 24 h with compounds. Cells” for “Cells”
as §2, with “Note that the Otsu plugin in ImageJ is an algorithm which searches for the threshold minimizing the intra-class variance of pixel intensities, defined as a weighted sum of variances of the two classes; the local set is a circular region of interest, and the central pixel is tested against the Otsu threshold found for that region.” left out

[3] = test system: lactate-dehydrogenase (LDH) of U87 shCTRL and U87 shTau cells; assay: LDH activity in the medium (necrosis); type: cell-based; details: both cell types, 24 h treatment
Experimental: death. (A) The apoptotic protein casp ase 3 (Casp 3) was analy zed by western blot of U87 shCTRL and U87 shTau cells: for each s ample t he ratio between the amount of Casp3 and GAPDH was calculated as relative fold of the reference value (with or without the compound); n = 3 lysates, ns: non-si gnificant. […]
blot used for quantification. (B) The activity of necrotic LDH protein was analy zed by fluorescence emission in U87 shCTRL (upper panel) and U87 shTau (lower panel) cells. For each s ample, the ratio between LDH florescence was calculated as the percentage of activity against reference value (0,1% Triton); n = 3 lysates; Significant statistical differences were calculated using a non-parametric Mann-Whitney test with **P < 0.01; n.s: non-significant.
(1 picture or pasted object on this page, not shown here)

[4] = test system: T98G glioblastoma cells; assay: MTT cell viability assay, T98G; type: cell-based; details: Homo sapiens, 72 h, mean ± SEM, read-out: IC50 (metabolic activity)
Experimental: Cells harvested from sub-confluent monolayers were seeded at 15,000 cells per mL in a 96-well microtiter plate (Cambridge Technology, Labège, France) and cultured for 24 h under standard conditions. Standard medium was then replaced by fresh medium containing no drugs or compounds at different concentrations. The surviving cells were quantified after 72 h by the MTT assay, according to the manufacturer’s instructions. Briefly, 20 µL of 3-(4,5-diMethylThiazol-2-yl)-2,5diphenyl Tetrazolium bromide (MTT) solution at 5 mg.mL^−1 was added to cells for 3 h at 37 °C. The supernatant was discarded and replaced by 100 µL of dimethyl sulfoxide to dissolve formazan crystals. The absorbance was then read at 600 nm by spectrophotometry. For all concentrations of a given compound, cell viability was expressed as the percentage of the ratio between the mean absorbance of treated cells and the mean absorbance of untreated cells. Three independent experiments were performed, and the data were expressed as percentage of survival (using the untreated cells as 100%) and subjected to statistical analysis (n = 3). The IC50 was calculated using the Chou and Talalay method.

[5] = 1.25 µM, 24 h, untreated 39 ± 5%

Structure (SMILES) | ratio of microtubule network surface to total cell surface [1, 5] | ratio of microtubule network surface to total cell surface ([1]; 5 µM, 8 h (maximal)) | ratio of microtubule network surface to total cell surface ([1]; 20 µM, 24 h, untreated 39 ± 5%) | change in elongation index of mitochondria [2] | reduction in the number of branch junctions per mitochondria [2] | LDH activity [3] | IC50 [4]
Nc1nc2ccc3oc(C(=O)O)cc(=O)c3c2s1 [Compound 5] | no effect | no effect on microtubule networks | no effect | No effect | No effect | remained similar to untreated cells | > 100000 nM
Nc1nc2ccc3oc(-c4cccc(Oc5ccccc5)c4)cc(=O)c3c2s1 [Compound 2, 2-amino-7-(3-phenoxyphenyl)-9H-chromeno [6,5-d]thiazol-9-one] | 42.2 ± 6.7% | 44.1 ± 3.8% | 43.2 ± 9.3% | −12.5% | 1.8 fold | remained similar to untreated cells | 2800 ± 2400 nM
